# Data taken from patent publication US12065671B2, “Method for reproducible differentiation of clinical-grade retinal pigment epithelium cells” (The United States of America, as represented by the …, priority 2015, dated 2024).
# Entries after “also recorded” stand apart in the source; their conditions may differ.
# Columns and labels:
# Type in all cases: cell-based, human
# iPSC-RPE cells [1] = assay: Immunostaining of iPSC-RPE monolayer (beta catenin, pERM, ZO1, RPE65, p27); conditions: for p27 staining: nucleus, higher expression suggests cell cycle exit; for Beta catenin staining: treated vs untreated iPSC-RPE cells (untreated: cytoplasm); for RPE65 staining: treated vs untreated iPSC-RPE cells (untreated: low); for RPE maturation: treatment of RPE cells in RPE-MM
# Description: (§1) For analysis of the mature RPE cells produced from treatment with PGE2, immunostaining of the RPE monolayer was performed to confirm the hexagonal architecture (FIGS. 4A-4C) of tight junctions by ZO1 staining as well as transmission electron microscopy of the iPSC-RPE cells (FIG. 4D). […] In addition, treatment with IWP2+endo-IWR1 or IWP2 results also results in decreased beta catenin (FIG. 5A) and increased RPE65 (FIG. 5C).
# RPE population = assay: Inclusion of MEK inhibitor in RDM and RPE-MM during RPE differentiation; conditions: 1 μM in RDM and in RPE-MM (approximately Days 42 through 50)
# Description: With regard to the methods described in Examples 2 and 3, the inclusion of PD0325901 at a concentration of 1 μM in media for certain windows of time beginning on Day 2 post iPSC plating through the end of the differentiation process, including post-MACS culture, may improve both purity of the RPE population (meaning a decrease in contaminating cells) as well as maturity of the resulting RPE population.
# iPSC-derived RPE cells [2] = assay: Flow cytometry purity assay for RPE-specific markers
# Description: The flow cytometry purity assay was performed to determine the percentage of RPE cells obtained by a sorting method of the present disclosure. An aliquot of the cell suspension collected from the MACS assay (2×10^6 cells in a 5 mL FACS tube per sample) was centrifuged at 400×g for 3 min. The cell pellet was resuspended in 1 mL of a stain (e.g., Live-Dead Red stain) and incubated in the dark at room temperature for 15 min. After incubation, 2 mL of wash buffer was added and the cells were centrifuged at 400×g for 3 min to remove any unbound stain. The cell pellet was resuspended in fixation buffer and incubated in the dark at room temperature for 15 min. After incubation, 2 mL of wash buffer were added and the cells were centrifuged at 400×g for 3 min and the supernatant was decanted. The cell pellet was resuspended in 2 mL of wash buffer to make a 1×10^6 cells/mL suspension and 200 μL of the cell suspension was transferred to a FACS tube. To each tube, 2 mL of perm buffer was added and cells were centrifuged at 400×g for 3 min. Primary antibodies for the RPE-specific markers were diluted in perm buffer and 100 μL diluted antibody solution was added to each tube. After incubation overnight at 4° C. in the dark, the cells were washed in 2 mL Perm Buffer two times. Secondary antibody solution was added to each of the tubes and cells were incubated at room temperature in the dark for 1-2 hours. After incubation, the cells were washed twice with Perm Buffer, centrifuged (400×g for 3 min) and resuspended in 100 μL wash buffer for flow cytometry analysis. […]
# Functionality of the mature RPE cells treated with IWP2 or endo-IWR1 was also characterized. […] To determine the maturity and functionality of the 50 μM versus 100 μM PGE2 treated cultures, the barrier function in terms of transepithelial electrical resistance (TER) was measured (FIG. 7F) to compare the resistance of substances through the paracellular space as explained in Example 9. […]
# iPSC-RPE cells [3] = assay: Transmission electron microscopy of iPSC-RPE cells; conditions: treated vs untreated iPSC-RPE cells
# Description: as §1
# iPSC-derived RPE cells [4] = assay: Barrier function: transepithelial electrical potential (TEP) and resistance (TER) of RPE monolayer
# Description: To measure the barrier function of the RPE cells generated by the present methods, transepithelial electrical potential (TEP) was measured the ion gradient across the monolayer generated by energy-driven ion pumps that regulate passage across the cells, and transepithelial electrical resistance (TER) measures resistance of substances through the paracellular space mainly through the fine structure of the tight junction structure (FIG. 7A).
# Functionality of the mature RPE cells treated with IWP2 or endo-IWR1 was also characterized. […] To determine the maturity and functionality of the 50 μM versus 100 μM PGE2 treated cultures, the barrier function in terms of transepithelial electrical resistance (TER) was measured (FIG. 7F) to compare the resistance of substances through the paracellular space as explained in Example 9. To determine the percentage of pure RPE cells obtained after treatment of the iPSC-derived RPE cultures with 50 μM or 100 μM in the RPE-MM+PGE2 medium, flow cytometry purity assay was performed for RPE-specific markers (FIG. 7G) as described in Example 6.
# [5] = day 75, 100 μM vs 50 μM PGE2, day 54 to day 75
Compound,p27 staining (iPSC-RPE cells [1]),Beta catenin staining (iPSC-RPE cells [1]),RPE65 staining (iPSC-RPE cells [1]),RPE maturation (iPSC-RPE cells [1]),Purity and maturity of the RPE population (RPE population),Expression of Best 1 marker (late maturity RPE marker) (iPSC-derived RPE cells [2]; [5]),"Expression of Pmel17, Tryp1 and Cralbp (RPE-specific markers) (iPSC-derived RPE cells [2]; [5])","Purity and maturity of the RPE population (iPSC-derived RPE cells [2]; higher concentration (100 μM vs 50 μM) in RPE-MM+PGE2 medium, TER and flow cytometry)",Apical processes in transmission electron micrographs (iPSC-RPE cells [3]),ZO1 staining (iPSC-RPE cells [1]; both untreated and treated cells),pERM (Ezrin) staining (iPSC-RPE cells [1]; treated vs untreated iPSC-RPE cells (untreated: low in cytoplasm)),"Functional response (TER) (iPSC-derived RPE cells [4]; 100 μM vs 50 μM PGE2 in RPE-MM+PGE2 medium, Day 54 to Day 75)",TEP and TER measurements (functionality) (iPSC-derived RPE cells [4]; treated vs untreated RPE cells)
"Cc1ccc2nc(NC(=O)CSc3nc4c(c(=O)n3-c3ccccc3)SCC4)sc2c1 [IWP2, N-(6-Methyl-2-benzothiazolyl)-2-[(3,4,6,7-tetrahydro-4-oxo-3-phenylthieno[3,2-d]pyrimidin-2-yl)thio]-acetamide]",higher p27 expression in the nucleus,decreased; also recorded: on cell membrane,increased; also recorded: high in the cytoplasm,produces mature RPE cells,,,,,,,,,
[Cl-].[Li+] [LiCl],weak p27 expression in the nucleus,in the nucleus,no staining,,,,,,,,,,
"O=C(NOC[C@H](O)CO)c1ccc(F)c(F)c1Nc1ccc(I)cc1F [PD 0325901, N-[(2R)-2,3-Dihydroxypropoxy]-3,4-difluoro-2-[(2-fluoro-4-iodophenyl)amino]-benzamide]",,,,,improve both purity and maturity,,,,,,,,
"CCCCC[C@H](O)/C=C/[C@H]1[C@H](O)CC(=O)[C@@H]1C/C=C\CCCC(=O)O [PGE2, prostaglandin E2]",,decreased; also recorded: at the membrane,increased; also recorded: high in the cytoplasm,produces mature RPE cells,,much higher,comparable expression,promotes both the purity and maturity,more extensive apical processes,at the tight junctions in the plasma membrane,high in the cytoplasm,progressive increase,increased functionality
